The CheMixHub viscosity set
± gives the uncertainty stated by the source.

Assay: xn = mol fraction of the nth substance listed
Settings: 101 kPa

COC(=O)c1ccccc1C(=O)OC + C1CCOC1
viscosity [mPa·s]
Settings | x1 = 0.1001 | x1 = 0.2019 | x1 = 0.2966 | x1 = 0.3989 | x1 = 0.5009 | x1 = 0.5992 | x1 = 0.7006 | x1 = 0.8013 | x1 = 0.9004
293.15 K | 0.7426 ± 0.023 | 1.073 ± 0.033 | 1.505 ± 0.046 | 2.155 ± 0.066 | 3.107 ± 0.095 | 4.313 ± 0.13 | 6.121 ± 0.19 | 8.638 ± 0.26 | 12.37 ± 0.38
298.15 K | 0.7028 ± 0.022 | 0.9986 ± 0.031 | 1.383 ± 0.042 | 1.947 ± 0.06 | 2.756 ± 0.084 | 3.756 ± 0.12 | 5.214 ± 0.16 | 7.181 ± 0.22 | 9.998 ± 0.31
303.15 K | 0.666 ± 0.02 | 0.9314 ± 0.029 | 1.276 ± 0.039 | 1.769 ± 0.054 | 2.463 ± 0.076 | 3.303 ± 0.1 | 4.496 ± 0.14 | 6.063 ± 0.19 | 8.238 ± 0.25
308.15 K | 0.6197 ± 0.019 | 0.8698 ± 0.027 | 1.181 ± 0.036 | 1.616 ± 0.05 | 2.217 ± 0.068 | 2.93 ± 0.09 | 3.92 ± 0.12 | 5.189 ± 0.16 | 6.906 ± 0.21
313.15 K | 0.6531 ± 0.08 | 0.8136 ± 0.025 | 1.097 ± 0.034 | 1.483 ± 0.045 | 2.007 ± 0.062 | 2.619 ± 0.08 | 3.45 ± 0.11 | 4.494 ± 0.14 | 5.87 ± 0.18
318.15 K | 0.557 ± 0.017 | 0.7619 ± 0.023 | 1.021 ± 0.031 | 1.365 ± 0.042 | 1.828 ± 0.056 | 2.357 ± 0.072 | 3.063 ± 0.094 | 3.933 ± 0.12 | 5.056 ± 0.16
323.15 K | 0.4957 ± 0.05 | 0.7137 ± 0.022 | 0.9522 ± 0.029 | 1.261 ± 0.039 | 1.674 ± 0.051 | 2.136 ± 0.066 | 2.739 ± 0.084 | 3.474 ± 0.11 | 4.404 ± 0.14
